Assays:
Assay in all cases: relative viability (nuclei count vs DMSO), 5 days (fraction); higher = more cells survive
BI-D1870 + Bortezomib = compound: CC(C)CCN1c2nc(Nc3cc(F)c(O)c(F)c3)ncc2N(C)C(=O)C1C [BI-D1870] + CC(C)C[C@H](NC(=O)[C@H](Cc1ccccc1)NC(=O)c1cnccn1)B(O)O [Bortezomib] (partner 0.002 µM)
Procedure, shortened: (§1)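 A single step with final 0.05% Triton X-100, 1% formaldehyde and 1 ug/ml Hoechst fixed the cells and stained nuclei 5 days after treatment. Lung cancer cell lines in 1536-well plates had been treated by pin tool the day after seeding with one drug alone or a fixed anchor-drug dose plus five library-drug doses (not always all listed) in √10 steps, and nuclei were counted on 4× images. Relative viability is the ratio of nuclei in treated wells to nuclei in vehicle wells, taken as the median of duplicate plates.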

BI-D1870 + Navitoclax = compound: CC(C)CCN1c2nc(Nc3cc(F)c(O)c(F)c3)ncc2N(C)C(=O)C1C [BI-D1870] + CC1(C)CCC(c2ccc(Cl)cc2)=C(CN2CCN(c3ccc(C(=O)NS(=O)(=O)c4ccc(N[C@H](CCN5CCOCC5)CSc5ccccc5)c(S(=O)(=O)C(F)(F)F)c4)cc3)CC2)C1 [Navitoclax] (partner 0.5 µM)
Procedure, shortened: as §1

BI-D1870 + Pemetrexed = compound: CC(C)CCN1c2nc(Nc3cc(F)c(O)c(F)c3)ncc2N(C)C(=O)C1C [BI-D1870] + Nc1nc2[nH]cc(CCc3ccc(C(=O)N[C@@H](CCC(=O)O)C(=O)O)cc3)c2c(=O)[nH]1 [Pemetrexed] (partner 0.2 µM)
Procedure, shortened: as §1

Zebularine + Phenformin = compound: O=c1ncccn1[C@@H]1O[C@H](CO)[C@@H](O)[C@H]1O [Zebularine] + N=C(N)NC(=N)NCCc1ccccc1 [Phenformin] (partner 250 µM)
Procedure, shortened: as §1

Cell Line	relative viability (BI-D1870 + Bortezomib; first compound 0.04 µM)	relative viability (BI-D1870 + Bortezomib; first compound 0.1265 µM)	relative viability (BI-D1870 + Bortezomib; first compound 0.4 µM)	relative viability (BI-D1870 + Bortezomib; first compound 1.265 µM)	relative viability (BI-D1870 + Bortezomib; first compound 4 µM)	relative viability (BI-D1870 + Navitoclax; first compound 0.04 µM)	relative viability (BI-D1870 + Navitoclax; first compound 0.1265 µM)	relative viability (BI-D1870 + Navitoclax; first compound 0.4 µM)	relative viability (BI-D1870 + Navitoclax; first compound 1.265 µM)	relative viability (BI-D1870 + Navitoclax; first compound 4 µM)	relative viability (BI-D1870 + Pemetrexed; first compound 0.04 µM)	relative viability (BI-D1870 + Pemetrexed; first compound 0.1265 µM)	relative viability (BI-D1870 + Pemetrexed; first compound 0.4 µM)	relative viability (BI-D1870 + Pemetrexed; first compound 1.265 µM)	relative viability (BI-D1870 + Pemetrexed; first compound 4 µM)	relative viability (Zebularine + Phenformin; first compound 1 µM)	relative viability (Zebularine + Phenformin; first compound 3.162 µM)	relative viability (Zebularine + Phenformin; first compound 10 µM)	relative viability (Zebularine + Phenformin; first compound 31.62 µM)	relative viability (Zebularine + Phenformin; first compound 100 µM)
HCC-78	0.545	0.402	0.492	0.56	0.42	0.736	0.825	0.81	0.987	0.778	1.06	0.889	0.947	0.916	0.919	0.678	0.728	0.496	0.74	0.387
HCC-366	1.1	0.911	1.05	1.1	0.317	1.15	0.964	1.08	1.01	1.05	0.148	0.174	0.215	0.176	0.118	0.709	0.613	0.495	0.503	0.0892
HCC-827	1.14	1.1	0.985	1.03	1.12	1.07	1.03	1.02	1.02	0.941	0.184	0.31	0.241	0.254	0.141	0.486	0.396	0.45	0.379	0.278
IA-LM	1.05	0.842	0.756	0.764	0.204	0.818	0.926	0.764	0.577	0.19										
LCLC-103H	1.28	1.09	1.06	1.17	1.06						0.453	0.457	0.48	0.434	0.439	0.365	0.337	0.261	0.391	0.303
LK-2						1.22	0.885	0.964	1.05	0.945	0.253	0.352	0.31	0.306	0.282	0.759	0.355	0.289	0.372	0.259
NCI-H358											0.184	0.168	0.153	0.164	0.164	0.354	0.261	0.209	0.227	0.154
NCI-H522											1.24	1.01	0.978	1	0.984	0.589	0.631	0.622	0.656	0.65
NCI-H650	1.11	0.784	0.899	0.96	0.611						0.848	0.837	0.96	0.896	0.802	0.454	0.45	0.409	0.295	0.285
NCI-H661	0.801	0.67	0.695	1.01	0.808						0.913	0.906	0.931	0.928	0.857	0.279	0.269	0.28	0.275	0.264
NCI-H727	0.813	0.724	0.913	1.24	0.833	0.459	0.362	0.416	0.607	0.501						0.628			0.693	0.528
NCI-H1299	1	0.985	1.02	0.959	0.839	1.04	1	1.09	1.01	0.843										
NCI-H1395						1.16	1.12	1.36	1.01	0.871	0.882	0.735	0.848	0.95	0.86	0.455	0.454	0.398	0.361	0.372
NCI-H1563	0.908	0.81	0.802	0.852	0.784						0.869	0.793	0.776	0.776	0.841	0.684	0.674	0.647	0.702	0.661
NCI-H1623																0.624	0.531	0.479	0.535	0.437
NCI-H1648											0.619	0.588		0.802	0.661					
NCI-H1703	0.377	0.315	0.353	0.288	0.21	1.1	0.846	1.02	1.28	0.745										
NCI-H1793						0.34	0.342	0.372	0.554	0.45	1.14	0.737	0.869	1.03	0.686	0.4	0.39		0.237	0.168
NCI-H1944						1.01	1.02	0.988	1.09	1.06	0.899	0.603	0.599	0.631	0.552	0.226	0.188	0.174	0.19	0.146
NCI-H2170						0.608	0.524	0.578	0.514	0.496	0.299	0.269	0.261	0.249	0.403	0.422	0.424	0.376	0.41	0.243
NCI-H2342											0.759	0.768	0.764	0.81	0.816	0.635	0.528	0.49	0.73	0.59
SK-MES-1						1.25	1.23	1.15	1.07	0.692	0.992	0.874	0.895	0.716	0.622	0.755	0.693	0.45	0.362	0.226
SW 900											0.44	0.463	0.471	0.516	0.434	0.809	0.559	0.349	0.65	0.407

Source: the supplement of paper PMC10307832
